Read-outs that look alike come from different tables or passages of the source.
Columns and labels:
Pseudomonas aeruginosa = test: MIC by agar dilution against 61 strains of Pseudomonas aeruginosa, secondary evaluation; type: cell-based; conditions: Pseudomonas aeruginosa, read-out: MIC
Method in brief: (§1)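 Compounds were diluted two-fold serially into Mueller-Hinton agar, then organisms were applied using Steers' apparatus and MICs read. The primary panel comprised 31 test organisms, and the secondary evaluation 61 strains of P. aeruginosa.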

E. cloacae = test: MIC by serial two-fold agar dilution (Mueller-Hinton agar), E. cloacae; type: cell-based; conditions: Enterobacter cloacae, Table 1
Method in brief: as §1

Ps. aeruginosa A9843 = test: Median curative dose in mice, infection with Ps. aeruginosa; type: in vivo; conditions: Pseudomonas aeruginosa, A9843, sc
Source text: (§2) Median Curative Dose in Mgm./Kg.
(§3) Upon Subcutaneous Injection in Mice

[1] = system: Gram-positive (6 strains); test: Mean % relative activity (MIC) vs sulbenicillin, Gram-positive (6 strains); type: cell-based; conditions: for Mean % Relative Activity (SPBC = 100%): G (+) (6 strains)
Experimental: (§4) Minimum inhibitory concentrations (MIC) of BB-S520 were determined by serial two-fold agar dilution method using Steers' apparatus on Meuller-Hinton agar plate against 31 test organisms for the primary screening and also against 61 strains of Pseudomonas aeruginosa for the secondary evaluation. The results are shown in Table 1 and Table 2 along with those of BB-S514 and sulbenicillin.
(§5) Minimum inhibitory concentrations (MIC) of cephalosporins in the present study were determined by serial two-fold agar dilution method using Steers' apparatus on Mueller-Hinton agar plate against 31 test organisms for the primary screening and also against 61 strains of Pseudomonas aeruginosa for the secondary evaluation.

S. enteritidis = test: MIC by serial two-fold agar dilution (Mueller-Hinton agar), S. enteritidis; type: cell-based; conditions: Salmonella enterica; S. enteritidis, Table 1; read-out: MIC
Method in brief: (§6)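 Serial two-fold agar dilution on Mueller-Hinton agar, inoculated with a Steers' apparatus. Primary screening used 31 test organisms; secondary evaluation used 61 Pseudomonas aeruginosa strains. Relative activity values are mean % of MIC against sulbenicillin.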

K. pneumoniae = test: MIC by serial two-fold agar dilution (Mueller-Hinton agar), K. pneumoniae; type: cell-based; conditions: Klebsiella pneumoniae, K. pneumoniae, Table 1
Method in brief: as §6

S. marcescens = test: MIC by serial two-fold agar dilution (Mueller-Hinton agar), S. marcescens; type: cell-based; conditions: Serratia marcescens; S. marcescens, Table 1; read-out: MIC
Method in brief: as §6

P. vulgaris = test: MIC by serial two-fold agar dilution (Mueller-Hinton agar), P. vulgaris; type: cell-based; conditions: Proteus vulgaris; P. vulgaris, Table 1; read-out: MIC
Method in brief: as §6

Klebsiella sp. = test: MIC by serial two-fold agar dilution (Mueller-Hinton agar), Klebsiella sp.; type: cell-based; conditions: Klebsiella sp., Table 1; read-out: MIC
Method in brief: as §6

P. morganii = test: MIC by serial two-fold agar dilution (Mueller-Hinton agar), P. morganii; type: cell-based; conditions: Morganella morganii; P. morganii, Table 1; read-out: MIC
Method in brief: as §6

E. coli Juhl = test: Median curative dose in mice, infection with E. coli Juhl; type: in vivo; conditions: Escherichia coli, sc; subcutaneous injection in mice, E. coli Juhl, Table 4; read-out: Median Curative Dose (PD50)
Source text: as §2, §3

Pseudomonas (6 strains) = test: Mean % relative activity (MIC) vs sulbenicillin, Pseudomonas (6 strains); type: cell-based; conditions: for Mean % Relative Activity (SPBC = 100%): P. aerug. (6 strains)
Experimental: as §4, §5

[2] = system: Gram-negative (19 strains); test: Mean % relative activity (MIC) vs sulbenicillin, Gram-negative (19 strains); type: cell-based; conditions: for Mean % Relative Activity (SPBC = 100%): G (-) (19 strains)
Experimental: as §4, §5

S. aureus Smith = test: Median curative dose in mice, infection with S. aureus Smith; type: in vivo; conditions: Staphylococcus aureus, sc; subcutaneous injection in mice, S. aureus Smith, Table 4; read-out: Median Curative Dose (PD50)
Source text: as §2, §3

Question: Which results are given for `NC(=O)OCC1=C(C(=O)O)N2C(=O)C(NC(=O)[C@H](NC(=O)c3cnc4cccnc4c3O)c3ccccc3)[C@H]2SC1` (stereo partly drawn) [BB-S520, Sodium 7-[D-α-(4-hydroxy-1,5-naphthyridine-3-carboxamido)-α-phenylacetamido]-3-carbamoyloxymethyl-3-cephem-4-carboxylate]?
Answer: MIC (Pseudomonas aeruginosa; BBRI Pa-No. 38, Table 7): 6.3 µg/mL; MIC (Pseudomonas aeruginosa; BBRI Pa-No. 39, Table 2): 3.1 µg/mL; MIC (Pseudomonas aeruginosa; BBRI Pa-No. 39, Table 7): 1.6 µg/mL; MIC (Pseudomonas aeruginosa; BBRI Pa-No. 41, Table 2): 3.1 µg/mL; MIC (Pseudomonas aeruginosa; BBRI Pa-No. 41, Table 7): 3.1 µg/mL; MIC (Pseudomonas aeruginosa; BBRI Pa-No. 42, Table 2): 6.3 µg/mL; MIC (Pseudomonas aeruginosa; BBRI Pa-No. 42, Table 7): 1.6 µg/mL; MIC (Pseudomonas aeruginosa; BBRI Pa-No. 43, Table 2): 6.3 µg/mL; MIC (Pseudomonas aeruginosa; BBRI Pa-No. 43, Table 7): 3.1 µg/mL; MIC (Pseudomonas aeruginosa; BBRI Pa-No. 44 (unnamed strain), Table 7): 3.1 µg/mL; MIC (Pseudomonas aeruginosa; BBRI Pa-No. 44, Table 2): 6.3 µg/mL; MIC (Pseudomonas aeruginosa; BBRI Pa-No. 51, Table 2): 3.1 µg/mL; MIC (Pseudomonas aeruginosa; BBRI Pa-No. 51, Table 7): 1.6 µg/mL; MIC (Pseudomonas aeruginosa; BBRI Pa-No. 52, Table 2): 3.1 µg/mL; MIC (Pseudomonas aeruginosa; BBRI Pa-No. 52, Table 7): 3.1 µg/mL; MIC (Pseudomonas aeruginosa; BBRI Pa-No. 53, Table 2): 3.1 µg/mL; MIC (Pseudomonas aeruginosa; BBRI Pa-No. 53, Table 7): 1.6 µg/mL; MIC (Pseudomonas aeruginosa; BBRI Pa-No. 54, Table 2): 3.1 µg/mL; MIC (Pseudomonas aeruginosa; BBRI Pa-No. 54, Table 7): 1.6 µg/mL; MIC (Pseudomonas aeruginosa; BBRI Pa-No. 55, Table 2): 3.1 µg/mL; MIC (Pseudomonas aeruginosa; BBRI Pa-No. 55, Table 7): 3.1 µg/mL; MIC (Pseudomonas aeruginosa; BBRI Pa-No. 56, Table 2): 3.1 µg/mL; MIC (Pseudomonas aeruginosa; BBRI Pa-No. 56, Table 7): 3.1 µg/mL; MIC (Pseudomonas aeruginosa; BBRI Pa-No. 57, Table 2): 3.1 µg/mL; MIC (Pseudomonas aeruginosa; BBRI Pa-No. 57, Table 7): 1.6 µg/mL; MIC (Pseudomonas aeruginosa; BBRI Pa-No. 58, Table 2): 6.3 µg/mL; MIC (Pseudomonas aeruginosa; BBRI Pa-No. 58, Table 7): 3.1 µg/mL; MIC (Pseudomonas aeruginosa; BBRI Pa-No. 59, Table 2): 6.3 µg/mL; MIC (Pseudomonas aeruginosa; BBRI Pa-No. 59, Table 7): 1.6 µg/mL; MIC (Pseudomonas aeruginosa; BBRI Pa-No. 60, Table 2): 3.1 µg/mL; MIC (Pseudomonas aeruginosa; BBRI Pa-No. 60, Table 7): 1.6 µg/mL; MIC (Pseudomonas aeruginosa; BBRI Pa-No. 61, Table 2): 6.3 µg/mL; MIC (Pseudomonas aeruginosa; BBRI Pa-No. 61, Table 7): 1.6 µg/mL; MIC (Pseudomonas aeruginosa; BBRI Pa-No. 62, Table 2): 6.3 µg/mL; MIC (Pseudomonas aeruginosa; BBRI Pa-No. 62, Table 7): 50 µg/mL; MIC (Pseudomonas aeruginosa; BBRI Pa-No. 64, Table 2): 3.1 µg/mL; MIC (Pseudomonas aeruginosa; BBRI Pa-No. 64, Table 7): 3.1 µg/mL; MIC (Pseudomonas aeruginosa; BBRI Pa-No. 65, Table 2): 3.1 µg/mL; MIC (Pseudomonas aeruginosa; BBRI Pa-No. 65, Table 7): 1.6 µg/mL; MIC (Pseudomonas aeruginosa; BBRI Pa-No. 66, Table 2): 3.1 µg/mL; MIC (Pseudomonas aeruginosa; BBRI Pa-No. 66, Table 7): 1.6 µg/mL; MIC (Pseudomonas aeruginosa; BBRI Pa-No. 67, Table 2): 6.3 µg/mL; MIC (Pseudomonas aeruginosa; BBRI Pa-No. 67, Table 7): 3.1 µg/mL; MIC (Pseudomonas aeruginosa; BBRI Pa-No. 68, Table 2): 6.3 µg/mL; MIC (Pseudomonas aeruginosa; BBRI Pa-No. 68, Table 7): 3.1 µg/mL; MIC (Pseudomonas aeruginosa; BBRI Pa-No. 69, Table 2): 12.5 µg/mL; MIC (Pseudomonas aeruginosa; BBRI Pa-No. 69, Table 7): 6.3 µg/mL; MIC (Pseudomonas aeruginosa; BBRI Pa-No. 70, K-Ps102 (CR-102), Table 2): 3.1 µg/mL; MIC (Pseudomonas aeruginosa; BBRI Pa-No. 70, K-Ps102(CR-102), Table 7): 1.6 µg/mL; MIC (Pseudomonas aeruginosa; GN315, BBRI Pa-No. 27, GN315, Table 2): 3.1 µg/mL; MIC (Pseudomonas aeruginosa; GN315, BBRI Pa-No. 27, GN315, Table 7): 1.6 µg/mL; MIC (Pseudomonas aeruginosa; GN4925, BBRI Pa-No. 44, GN4925, Table 7): 6.3 µg/mL; MIC (Pseudomonas aeruginosa; GN4925, BBRI Pa-No. 45, GN4925, Table 2): 6.3 µg/mL; MIC (E. cloacae; E. cloacae (1st line)): 12.5 µg/mL; MIC (E. cloacae; E. cloacae (2nd line)): 50 µg/mL; MIC (E. cloacae; E. cloacae (3rd line)): 25 µg/mL; ED50 (Ps. aeruginosa A9843; mice, P. aerug. A9843 infection, Table 5, read-out: PD50): 37 mg/kg; ED50 (Ps. aeruginosa A9843; subcutaneous injection in mice, Ps. aeruginosa, Table 4, read-out: Median Curative Dose (PD50)): 37 mg/kg; Mean % Relative Activity (SPBC = 100%) ([1]; lot 1, Table 5): 200%; Mean % Relative Activity (SPBC = 100%) ([1]; lot 2, Table 5): 141%; Mean % Relative Activity (Sulbenicillin = 100%) ([1]; Gram-positive (6 strains), from geometric means of MICs in Table 1): 200%; MIC (S. enteritidis): 3.1 µg/mL; MIC (K. pneumoniae): 1.6 µg/mL; MIC (S. marcescens): > 100 µg/mL; MIC (P. vulgaris): 100 µg/mL; MIC (Klebsiella sp.): 3.1 µg/mL; MIC (P. morganii): > 100 µg/mL; ED50 (E. coli Juhl): 1.8 mg/kg; Mean % Relative Activity (SPBC = 100%) (Pseudomonas (6 strains); lot 1, Table 5): 635%; Mean % Relative Activity (SPBC = 100%) (Pseudomonas (6 strains); lot 2, Table 5): 712%; Mean % Relative Activity (Sulbenicillin = 100%) (Pseudomonas (6 strains); Pseudomonas (6 strains), from geometric means of MICs in Table 1): 635%; Mean % Relative Activity (SPBC = 100%) ([2]; lot 1, Table 5): 179%; Mean % Relative Activity (SPBC = 100%) ([2]; lot 2, Table 5): 108%; Mean % Relative Activity (Sulbenicillin = 100%) ([2]; Gram-negative (19 strains), from geometric means of MICs in Table 1): 179%; ED50 (S. aureus Smith): 0.8 mg/kg
